Measurements: patent US9440982B2 (Eolas Therapeutics, Inc., priority 2012, dated 2016)

What was measured:
CYP3A4 = target: T1, CYP3A4 (Homo sapiens, UniProt P08684); assay: Cytochrome P450 inhibition assay (midazolam hydroxylation); assay type: in vitro ADME; settings: human, human liver microsomes, probe midazolam (hydroxylation to 1′-hydroxymidazolam), 10 μM test compound, midazolam at approximately its Km
T1 construct: pre-incubated with human liver microsomes and NADPH; from tissue; host or cells: human liver microsomes
T1 sequence (P08684 whole entry): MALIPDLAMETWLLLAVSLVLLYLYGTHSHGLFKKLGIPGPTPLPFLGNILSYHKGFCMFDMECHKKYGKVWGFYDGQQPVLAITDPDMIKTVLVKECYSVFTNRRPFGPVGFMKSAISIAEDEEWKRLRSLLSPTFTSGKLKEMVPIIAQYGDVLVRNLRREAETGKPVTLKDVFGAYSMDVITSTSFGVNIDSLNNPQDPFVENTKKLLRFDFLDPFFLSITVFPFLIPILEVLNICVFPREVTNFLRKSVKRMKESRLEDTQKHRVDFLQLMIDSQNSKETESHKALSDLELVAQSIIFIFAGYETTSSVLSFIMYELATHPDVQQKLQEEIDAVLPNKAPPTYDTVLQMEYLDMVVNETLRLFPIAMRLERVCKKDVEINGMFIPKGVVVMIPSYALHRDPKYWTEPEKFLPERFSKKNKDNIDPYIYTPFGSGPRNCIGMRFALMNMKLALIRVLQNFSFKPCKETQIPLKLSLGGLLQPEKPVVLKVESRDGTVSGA
How it was run: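 Human liver microsomes; CYP3A4 activity as midazolam 1′-hydroxylation with substrate near Km, with or without 10 μM test compound, read as percent inhibition. For time-dependent inhibition, parallel samples were preincubated 30 min with NADPH before substrate, and percent inhibition compared with non-preincubated samples.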

OX1 = target: T2, OX1 (Homo sapiens, UniProt O43613); assay: Orexin receptor cell-based functional assay, [Ca2+]i by FLIPR, CHO-OX1 cells; settings: CHO-OX1 cells, [Ca2+]i by FLIPR, antagonist dose-range 0.1 nM-10 μM, EC90 of OXA; read-out: OX1
T2 construct: expressed in transfected cells; host or cells: CHO (CHO-OX1, kept under selection antibiotic)
T2 sequence (O43613 1-425): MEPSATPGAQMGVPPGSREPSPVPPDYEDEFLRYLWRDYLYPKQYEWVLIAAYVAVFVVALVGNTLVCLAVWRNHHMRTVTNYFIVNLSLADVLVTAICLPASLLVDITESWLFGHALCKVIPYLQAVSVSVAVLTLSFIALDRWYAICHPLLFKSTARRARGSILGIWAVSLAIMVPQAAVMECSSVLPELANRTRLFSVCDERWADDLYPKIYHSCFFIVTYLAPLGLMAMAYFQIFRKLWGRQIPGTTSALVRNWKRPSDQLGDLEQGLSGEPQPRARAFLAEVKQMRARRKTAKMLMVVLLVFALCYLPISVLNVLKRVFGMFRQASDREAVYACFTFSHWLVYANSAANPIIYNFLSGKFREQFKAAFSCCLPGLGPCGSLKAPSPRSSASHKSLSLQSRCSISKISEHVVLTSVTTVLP
How it was run: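 CHO cells expressing human OX1 or OX2 loaded with calcium dye plus 2.5 mM probenecid at 37° C (calcium4, 30 min, or calcium6, 2 h), then exposed to compounds (0.1 nM-10 μM) for 30 min. Intracellular Ca2+ measured on FLIPR; antagonist format.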

inhibition at 10 µM (CYP3A4) [%] | IC50 (OX1) [nM] | SMILES
78 | 3 | Cc1ccc(-n2nccn2)c(C(=O)N2CCC[C@@H](C)[C@H]2CNc2nc3cc(Cl)ccc3o2)c1 [Example A11, ((2S,3R)-2-(((5-Chlorobenzo[d]oxazol-2-yl)amino)methyl)-3-methylpiperidin-1-yl)(5-methyl-2-(2H-1,2,3-triazol-2-yl)phenyl)methanone]
96 | 260 | Cc1ccc(-n2ncnc2C)c(C(=O)N2CCC[C@@H](C)[C@H]2CNc2ccc(C(F)(F)F)cn2)c1 [Example A16, ((2S,3R)-3-Methyl-2-(((5-(trifluoromethyl)pyridin-2-yl)amino)methyl)piperidin-1-yl)(5-methyl-2-(5-methyl-1H-1,2,4-triazol-1-yl)phenyl)methanone]
69 | 45 | C[C@@H]1CCCN(C(=O)c2cc(F)ccc2-n2nccn2)[C@@H]1CNc1ccc(Cl)cn1 [Example A209, ((2S,3R)-2-(((5-Chloropyridin-2-yl)amino)methyl)-3-methylpiperidin-1-yl)(5-fluoro-2-(2H-1,2,3-triazol-2-yl)phenyl)methanone]
53 | 32 | C[C@@H]1CCCN(C(=O)c2cc(F)ccc2-n2nccn2)[C@@H]1CNc1ncc(Cl)cn1 [Example A221, ((2S,3R)-2-(((5-Chloropyrimidin-2-yl)amino)methyl)-3-methylpiperidin-1-yl)(5-fluoro-2-(2H-1,2,3-triazol-2-yl)phenyl)methanone]
84 | 7 | Cc1ccc(-n2nccn2)c(C(=O)N2CCC[C@@H](C)[C@H]2CNc2ccc(Cl)cn2)c1 [Example A78, ((2S,3R)-2-(((5-Chloropyridin-2-yl)amino)methyl)-3-methylpiperidin-1-yl)(5-methyl-2-(2H-1,2,3-triazol-2-yl)phenyl)methanone]
59 | 200 | C[C@@H]1CCCN(C(=O)c2cc(F)ccc2-n2nccn2)[C@@H]1CNc1ccc(C(F)(F)F)nn1 [Example A208, (5-Fluoro-2-(2H-1,2,3-triazol-2-yl)phenyl)((2S,3R)-3-methyl-2-(((6-(trifluoromethyl)pyridazin-3-yl)amino)methyl)piperidin-1-yl)methanone]
60 | 3 | Cc1ccc(-n2nccn2)c(C(=O)N2CCC[C@@H](C)[C@H]2CNc2ncc(C(F)(F)F)cn2)c1 [Example A149, ((2S,3R)-3-Methyl-2-(((5-(trifluoromethyl)pyrimidin-2-yl)amino)methyl)piperidin-1-yl)(5-methyl-2-(2H-1,2,3-triazol-2-yl)phenyl)methanone]
57 | 4 | Cc1ccc(-n2nccn2)c(C(=O)N2CCC[C@@H](C)[C@H]2CNc2nc3cc(Cl)ccc3o2)n1 [Example A195, ((2S,3R)-2-(((5-Chlorobenzo[d]oxazol-2-yl)amino)methyl)-3-methylpiperidin-1-yl)(6-methyl-3-(2H-1,2,3-triazol-2-yl)pyridin-2-yl)methanone]
68 | 8 | Cc1ccc(-n2nccn2)c(C(=O)N2CCC[C@@H](C)[C@H]2CNc2ncc(C(F)(F)F)cc2F)c1 [Example A82, ((2S,3R)-2-(((3-Fluoro-5-(trifluoromethyl)pyridin-2-yl)amino)methyl)-3-methylpiperidin-1-yl)(5-methyl-2-(2H-1,2,3-triazol-2-yl)phenyl)methanone]

Continued, molecule first:

SMILES | inhibition at 10 µM (CYP3A4) [%] | IC50 (OX1) [nM]
Cc1ccc(-c2ccc(C(F)(F)F)cn2)c(C(=O)N2CCC[C@@H](C)[C@H]2CNc2ccc(Cl)cn2)c1 [Example A158, ((2S,3R)-2-(((5-Chloropyridin-2-yl)amino)methyl)-3-methylpiperidin-1-yl)(5-methyl-2-(5-(trifluoromethyl)pyridin-2-yl)phenyl)methanone] | 83 | 220
Cc1ccc(-c2cccnn2)c(C(=O)N2CCC[C@@H](C)[C@H]2CNc2ccc(C(F)(F)F)cn2)c1 [Example A197, ((2S,3R)-3-methyl-2-(((5-(trifluoromethyl)pyridin-2-yl)amino)methyl)piperidin-1-yl)(5-methyl-2-(pyridazin-3-yl)phenyl)methanone] | 83 | 7
Cc1ccc(-c2ccccn2)c(C(=O)N2CCC[C@@H](C)[C@H]2CNc2ncc(C(F)(F)F)cn2)c1 [Example A152, ((2S,3R)-3-Methyl-2-(((5-(trifluoromethyl)pyrimidin-2-yl)amino)methyl)piperidin-1-yl) (5-methyl-2-(pyridin-2-yl)phenyl)methanone] | 86 | 4
Cc1ccc(NC[C@@H]2[C@H](C)CCCN2C(=O)c2cc(C)ccc2-c2ccccn2)nc1 [Example A59, ((2S,3R)-3-Methyl-2-(((5-methylpyridin-2-yl)amino)methyl)piperidin-1-yl)(5-methyl-2-(pyridin-2-yl)phenyl)methanone] | 87 | 50
Cc1ccc(-c2ccccn2)c(C(=O)N2CCC[C@@H](C)[C@H]2CNc2ncc(C(F)(F)F)cn2)n1 [Example A167, ((2S,3R)-3-Methyl-2-(((5-(trifluoromethyl)pyrimidin-2-yl)amino)methyl)piperidin-1-yl)(6′-methyl-[2,3′-bipyridin]-2′-yl)methanone] | 45 | 5
Cc1ccc(-c2ncccn2)c(C(=O)N2CCC[C@@H](C)[C@H]2CNc2ccc(C#N)cn2)c1 [Example A139, 6-((((2S,3R)-3-Methyl-1-(5-methyl-2-(pyrimidin-2-yl)benzoyl)piperidin-2-yl)methyl)amino)nicotinonitrile] | 41 | 140
C[C@@H]1CCCN(C(=O)c2ccccc2-c2ncccn2)[C@@H]1CNc1ccc(C(F)(F)F)cn1 [Example A316, ((2S,3R)-3-Methyl-2-(((5-(trifluoromethyl)pyridin-2-yl)amino)methyl)piperidin-1-yl)(2-(pyrimidin-2-yl)phenyl)methanone] | 63 | 4
Cc1ccc(NC[C@@H]2[C@H](C)CCCN2C(=O)c2cc(C)ccc2-c2ncccn2)nc1 [Example A143, ((2S,3R)-3-Methyl-2-(((5-methylpyridin-2-yl)amino)methyl)piperidin-1-yl)(5-methyl-2-(pyrimidin-2-yl)phenyl)methanone] | 75 | 26
Cc1cccc(C(=O)N2CCC[C@@H](C)[C@H]2CNc2ccc(C(F)(F)F)cn2)c1-c1ncccn1 [Example A298, ((2S,3R)-3-Methyl-2-(((5-(trifluoromethyl)pyridin-2-yl)amino)methyl)piperidin-1-yl)(3-methyl-2-(pyrimidin-2-yl)phenyl)methanone] | 75 | 5
C[C@@H]1CCCN(C(=O)c2cc(C#N)ccc2-n2nccn2)[C@@H]1CNc1ncc(C(F)(F)F)cn1 [Example A322, 3-((2S,3R)-3-Methyl-2-(((5-(trifluoromethyl)pyrimidin-2-yl)amino)methyl)piperidine-1-carbonyl)-4-(2H-1,2,3-triazol-2-yl)benzonitrile] | 40 | 11
C[C@@H]1CCCN(C(=O)c2c(F)cccc2-n2nccn2)[C@@H]1CNc1ncc(C(F)(F)F)cn1 [Example A259, (2-Fluoro-6-(2H-1,2,3-triazol-2-yl)phenyl)((2S,3R)-3-methyl-2-(((5-(trifluoromethyl)pyrimidin-2-yl)amino)methyl)piperidin-1-yl)methanone] | 37 | 9
C[C@@H]1CCCN(C(=O)c2cc(F)ccc2-c2ncccn2)[C@@H]1CNc1ccc(C(F)(F)F)cn1 [Example A228, (5-Fluoro-2-(pyrimidin-2-yl)phenyl)((2S,3R)-3-methyl-2-(((5-(trifluoromethyl)pyridin-2-yl)amino)methyl)piperidin-1-yl)methanone] | 72 | 1
C[C@@H]1CCCN(C(=O)c2cc(F)ccc2-c2ncccn2)[C@@H]1CNc1ncc(C(F)(F)F)cn1 [Example A227, (5-Fluoro-2-(pyrimidin-2-yl)phenyl)((2S,3R)-3-methyl-2-(((5-(trifluoromethyl)pyrimidin-2-yl)amino)methyl)piperidin-1-yl)methanone] | 59 | 2
C[C@@H]1CCCN(C(=O)c2cc(F)ccc2-c2ncccn2)[C@@H]1CNc1ccc(Cl)cn1 [Example A229, ((2S,3R)-2-(((5-Chloropyridin-2-yl)amino)methyl)-3-methylpiperidin-1-yl)(5-fluoro-2-(pyrimidin-2-yl)phenyl)methanone] | 72 | 4
Cc1ccc(-n2nccn2)c(C(=O)N2CCC[C@@H](C)[C@H]2CN(C)c2ccc(C(F)(F)F)cn2)n1 [Example A194, ((2S,3R)-3-Methyl-2-((methyl(5-(trifluoromethyl)pyridin-2-yl)amino)methyl)piperidin-1-yl)(6-methyl-3-(2H-1,2,3-triazol-2-yl)pyridin-2-yl)methanone] | 79 | 6
